# Source: US9340559B2, “Proteasome inhibitor delanzomib for use in the treatment of lupus” (Cephalon, Inc., priority 2011, dated 2016)
# What was measured:
# Assay type in all cases: in vivo, mouse
# NZM mice [1] = tested on: NZM mice
# MRL/lpr mice = experiment: Luminex analysis of serum cytokines (IL-12p40/p70, IL-1β, TNFα), MRL/lpr mice; settings: G6: 1.5 mg/kg ip, 3× wk
# Protocol: For the processing of serum samples for cytokine analysis, frozen plasma at −80° C. is thawed on ice, vortexed, and centrifuged for 10 minutes to remove debris and aggregates. A total of 25-50 μL of serum is used for Luminex® assays following the manufacturer's instructions. Ten different mouse cytokines are measured using the mouse cytokine 10-plex bead kit (Invitrogen, Carlsbad, Calif., no. LMC0001). Briefly, filter plates (Millipore, Billerica, Mass., no. MAIPSWU10), are pre-wet with 200 μL of wash solution (kit component) and 25 μL of beads are added per well. Serum samples are diluted and a total volume of 50 μL is added per well (ie, 25 μL of sample serum plus 25 μL of assay diluent as provided by the manufacturer). Plates with beads are incubated for 2 hours at room temperature (RT) on an orbital shaker in the dark. At the end of the incubation, plate(s) are washed twice in kit buffer, secondary biotinylated antibody is added at a 1:10 dilution (100 μL) in biotin diluent provided with the kit. Plates are incubated at RT for 1 hour in the dark then washed twice in kit buffer. Strepavidin in assay diluent is added at 100 μL per well, then incubated for 30 minutes at RT in the dark. The plates are washed 3 times then 100 μL of kit wash solution is added and agitated for 2-3 minutes at RT in the dark. Plates are run immediately following this incubation period on a Luminex xMAP 200 unit with data acquisition and analysis software (Invitrogen, San Diego, Calif., no. MAP0200). All bead washing is performed using a vacuum manifold unit (Pall, Ann Arbor, Mich. no. 5017). For all cytokine Luminex assays, values below the limit of detection set by the lowest point along the standard or set by the manufacturer are considered out of range and are not estimated, but assumed the lowest point along the standard curve for that particular assay.
# Mice are tracked on an individual basis.
# Vehicle alone is provided orally twice weekly (p.o.). Both proteasome inhibitors are suspended in the vehicle solution. […] In addition, urine proteinuria is determined for all animals.
# Vehicle was 3% DMSO/10% Solutol/87% PBS.
# NZM mice [2] = experiment: Antibody secreting B-cell Elispot (anti-chromatin, total IgG ASC), spleens of NZM mice (Example 2)
# Protocol: FIG. 34 depicts the frequency of anti-chromatin antibody secreting cells in the spleens of NZM mice. NZM treated mice spleens were processed for splenocytes for ex vivo Elispot assays. Elispot wells were coated with 10 μg/mL of boiled chicken chromatin or ovalbumin protein. Fresh, whole splenocytes were added to each well at 50,000 cells per well in cell culture medium. Cells were incubated overnight at 37° C. Developed wells provided spots that were counted as frequency of ASCs per million splenocytes.
# FIG. 35 depicts the frequency of total IgG antibody secreting cells in the spleens of NZM mice. NZM treated mice spleens were processed for splenocytes for ex vivo Elispot assays. Elispot wells were coated with 10 μg/mL of anti-mouse IgG, IgH, and IgL chains. Fresh, whole splenocytes were added to each well at 50,000 cells per well in cell culture medium. Cells were incubated overnight at 37° C. Developed wells provided spots that were counted as frequency of ASCs per million splenocytes.
# B-cell Elispot components are ordered from MabTech (Nacka Strand, Sweden) and nitrocellulose IP filter plates are ordered from Millipore (Billerica, Mass.). Elispot wells are coated with either purified bovine thymus dsDNA (Sigma), purified bovine Smith antigen (GenWay) or boiled filtered purified chicken chromatin from lysed chicken red blood cells (Rockland, Gilbertsville, Pa.) at 10 μg/mL. Spleens are processed using glass homogenization (frosted slides). Dispersed cell contents are washed in sterile HBSS and RBCs lysed using 1×RBC lysis buffer (BioLegend, Cat #420301). Processed splenocytes are added to each well and are not stimulated with lipopolysaccharide (LPS) to avoid skewing of true ex vivo frequencies of antibody-secreting cell types (ASCs). Anti-mouse pan-IgG is used as a positive control for total IgG producing ASCs and is used to normalize results. Frequencies for each antigen are identified in an initial test phase for each model. For chromatin and total IgG only, 30,000 splenocytes are added to each well; for Smith antigen and dsDNA, 500,000 cells are added to each well. Different numbers of splenocytes are added for different antigens due to saturation limits of spot frequencies per well. B-cell Elispots are incubated overnight at 37° C. To develop each assay, secondary antibody is added to each well, incubated, washed and alkaline phosphatase strepavidin (Jackson ImmunoResearch, West Grove, Pa.) is used as the conjugate; substrate used is BCIP-NBT (MabTech, Cincinnati, Ohio). Plates are developed until spots are visible. All Elispot analyses are performed using an Immunospot C.T.L. scanner and Biospot software (Cellular Technology Ltd., Shaker Heights, Ohio). Results are shown as values from which media and cells only wells are subtracted. Some values are negative due to high background.
compound,measurement,setting,value
"C[C@@H]1C[C@H]2[C@@H]3CCC4=CC(=O)C=C[C@]4(C)[C@@]3(F)[C@@H](O)C[C@]2(C)[C@@]1(O)C(=O)CO [dexamethasone, Dexamethasone, reference compound]","Cytokine IL-12 AUC, percent change vs vehicle","NZM mice [1]; G5 1.5 mg/kg ip, 3× wk",−48%
same,"Cytokine IL-13 AUC, percent change vs vehicle","NZM mice [1]; G5 1.5 mg/kg ip, 3× wk",−56%
same,"Cytokine IL-17A AUC, percent change vs vehicle","NZM mice [1]; G5 1.5 mg/kg ip, 3× wk",−55%
same,"Cytokine IP-10 AUC, percent change vs vehicle","NZM mice [1]; G5 1.5 mg/kg ip, 3× wk",−37%
same,"Cytokine MIG AUC, percent change vs vehicle","NZM mice [1]; G5 1.5 mg/kg ip, 3× wk",−68%
same,"Cytokine TNFα AUC, percent change vs vehicle","NZM mice [1]; G5 1.5 mg/kg ip, 3× wk",79%
same,"p, serum IL-12p40/p70 concentration vs G5 Bortezomib 0.3 mg/kg 1× wk ip",NZM mice [1]; G8 1.5 mg/kg 3× wk ip,NS (NS = not significant (p > 0.05))
same,"p, serum IL-12p40/p70 concentration vs G6 Bortezomib 0.3 mg/kg 2× wk ip",NZM mice [1]; G8 1.5 mg/kg 3× wk ip,NS (NS = not significant (p > 0.05))
same,"p, serum IL-12p40/p70 concentration vs G7 CTX 50 mg/kg 1× wk ip",NZM mice [1]; G8 1.5 mg/kg 3× wk ip,NS (NS = not significant (p > 0.05))
same,"p, serum IL-12p40/p70 concentration vs G9 Vehicle 1× wk ip",NZM mice [1]; G8 1.5 mg/kg 3× wk ip,NS (NS = not significant (p > 0.05))
same,"p, serum IL-13 concentration vs G5 Bortezomib 0.3 mg/kg 1× wk ip",NZM mice [1]; G8 1.5 mg/kg 3× wk ip,NS (NS = not significant (p > 0.05))
same,"p, serum IL-13 concentration vs G6 Bortezomib 0.3 mg/kg 2× wk ip",NZM mice [1]; G8 1.5 mg/kg 3× wk ip,NS (NS = not significant (p > 0.05))
same,"p, serum IL-13 concentration vs G7 CTX 50 mg/kg 1× wk ip",NZM mice [1]; G8 1.5 mg/kg 3× wk ip,p < 0.001
same,"p, serum IL-13 concentration vs G9 Vehicle 1× wk ip",NZM mice [1]; G8 1.5 mg/kg 3× wk ip,NS (NS = not significant (p > 0.05))
same,"p, serum IL-17A concentration vs G5 Bortezomib 0.3 mg/kg 1× wk ip",NZM mice [1]; G8 1.5 mg/kg 3× wk ip,NS (NS = not significant (p > 0.05))
same,"p, serum IL-17A concentration vs G6 Bortezomib 0.3 mg/kg 2× wk ip",NZM mice [1]; G8 1.5 mg/kg 3× wk ip,NS (NS = not significant (p > 0.05))
same,"p, serum IL-17A concentration vs G7 CTX 50 mg/kg 1× wk ip",NZM mice [1]; G8 1.5 mg/kg 3× wk ip,p < 0.001
same,"p, serum IL-17A concentration vs G9 Vehicle 1× wk ip",NZM mice [1]; G8 1.5 mg/kg 3× wk ip,NS (NS = not significant (p > 0.05))
same,"p, serum IP-10 concentration vs G5 Bortezomib 0.3 mg/kg 1× wk ip",NZM mice [1]; G8 1.5 mg/kg 3× wk ip,NS (NS = not significant (p > 0.05))
same,"p, serum IP-10 concentration vs G6 Bortezomib 0.3 mg/kg 2× wk ip",NZM mice [1]; G8 1.5 mg/kg 3× wk ip,NS (NS = not significant (p > 0.05))
same,"p, serum IP-10 concentration vs G7 CTX 50 mg/kg 1× wk ip",NZM mice [1]; G8 1.5 mg/kg 3× wk ip,p < 0.001
same,"p, serum IP-10 concentration vs G9 Vehicle 1× wk ip",NZM mice [1]; G8 1.5 mg/kg 3× wk ip,p < 0.001
same,"p, serum MIG concentration vs G5 Bortezomib 0.3 mg/kg 1× wk ip",NZM mice [1]; G8 1.5 mg/kg 3× wk ip,NS (NS = not significant (p > 0.05))
same,"p, serum MIG concentration vs G6 Bortezomib 0.3 mg/kg 2× wk ip",NZM mice [1]; G8 1.5 mg/kg 3× wk ip,NS (NS = not significant (p > 0.05))
same,"p, serum MIG concentration vs G7 CTX 50 mg/kg 1× wk ip",NZM mice [1]; G8 1.5 mg/kg 3× wk ip,p < 0.001
same,"p, serum MIG concentration vs G9 Vehicle 1× wk ip",NZM mice [1]; G8 1.5 mg/kg 3× wk ip,NS (NS = not significant (p > 0.05))
same,"p, serum TNFα concentration vs G5 Bortezomib 0.3 mg/kg 1× wk ip",NZM mice [1]; G8 1.5 mg/kg 3× wk ip,NS (NS = not significant (p > 0.05))
same,"p, serum TNFα concentration vs G6 Bortezomib 0.3 mg/kg 2× wk ip",NZM mice [1]; G8 1.5 mg/kg 3× wk ip,p <0.01
same,"p, serum TNFα concentration vs G7 CTX 50 mg/kg 1× wk ip",NZM mice [1]; G8 1.5 mg/kg 3× wk ip,p <0.05
same,"p, serum TNFα concentration vs G9 Vehicle 1× wk ip",NZM mice [1]; G8 1.5 mg/kg 3× wk ip,NS (NS = not significant (p > 0.05))
same,"Cytokine AUC serum IL-1β, percent change vs vehicle",MRL/lpr mice,−44%
same,"Cytokine AUC serum IL-12, percent change vs vehicle",MRL/lpr mice,−74%
same,"Cytokine AUC serum TNFα, percent change vs vehicle",MRL/lpr mice,−87%
same,"ASC chromatin EOS, percent change vs vehicle","NZM mice [2]; G5 1.5 mg/kg ip, 3× wk",−42%
same,"ASC total IgG EOS, percent change vs vehicle","NZM mice [2]; G5 1.5 mg/kg ip, 3× wk",+19%
same,"p, frequency of total IgG antibody secreting cells in spleen vs G7 CTX 50 mg/kg 1× wk ip",NZM mice [2]; G8 1.5 mg/kg 3× wk ip,p < 0.01
